Source: paper PMC11555501 (ACS Pharmacology & Translational Science, 2024)
Non-standard residues stand in square brackets, D forms with d. Residues, ends and D or L forms follow the SMILES beside them. *: point of attachment. X1 = CN(C)c1ccc2c(c1)Oc1cc(N(C)C)ccc1C21OC(=O)c2ccc(C(=O)*)cc21; Bip = N[C@@H](Cc1ccc(-c2ccccc2)cc1)C(=O)O; Lauroyl = CCCCCCCCCCCC(=O)*

Experiments:
[1] = Stability of Tam-labeled peptides in HEK-293 cell culture supernatant; format: in vitro ADME; conditions: for half-life at 10 μM: DMEM with 15% FBS on HEK-293 cells
Description: The cells were grown under standard conditions. […] The medium was replaced with the peptide solutions.

[2] = Stability of Tam-labeled peptides in human blood plasma (RP-HPLC fluorescence, MALDI-ToF-MS); conditions: for half-life at 10 μM / remaining at 72 h, 10 μM: human
Description: (§1) Peptide solutions were diluted as described above and incubated at 37 °C. Samples were precipitated in 2× ACN/EtOH (1:1, v/v) at −20 °C overnight and filtered through Costar Spin-X tubes. The solutions of Tam-labeled peptides diluted with H2O (1:1, v/v) were analyzed by RP-HPLC using a linear gradient of eluent B (0.1% TFA in H2O) in eluent A (0.08% TFA in ACN) over 40 min at 40 °C on a VariTide RPC column (250 mm × 4.6 mm, 200 Å, 6 μm, flow rate 1 mL/min, Agilent Technologies). The relative amount of intact peptide was determined by fluorescence intensity (extinction 525 nm, emission 572 nm). Half-life was calculated by one-phase decay in Prism 10. Furthermore, eluting peptides were collected, lyophilized, and analyzed by MALDI-ToF-MS.

[3] = Stability of Tam-labeled peptides in Calu-3 cell culture supernatant
Description: as §1
HEK-293 cells were cultivated under standard conditions in Dulbecco’s modified Eagle’s medium (DMEM, Biowest)/Ham’s F12 (Biowest, 1:1, v/v) with 15% fetal bovine serum (FBS, Sigma-Aldrich). HEK-293 cells were detached with trypsin/ethylenediaminetetraacetic acid (Lonza) and seeded in a poly-D-lysine hydrobromide (Merck, 0.1 mg/mL)-coated 96-well cell culture microplate (Greiner Bio-One, 100,000 cells/well). The cells were grown under standard conditions. […] Cell differentiation was supported by culturing cells on an air–liquid interface for 10–14 days and monitored by measurement of transepithelial electrical resistance. […]

[4] = human blood plasma/DPBS (1:1); conditions: 37 °C, up to 72 h
[5] = HEK-293 supernatant (phenol red-free DMEM with 15% FBS); conditions: up to 72 h

Molecule: CCCCCCCCCCCC(=O)NCCCC[C@H](N)C(=O)N[C@H](C(=O)N[C@@H](CC(N)=O)C(=O)N1CCC[C@H]1C(=O)N[C@@H](CCCCNC(=O)c1ccc2c(c1)C1(OC2=O)c2ccc(N(C)C)cc2Oc2cc(N(C)C)ccc21)C(=O)N[C@@H](Cc1ccc(-c2ccccc2)cc1)C(=O)N[C@@H](CCCNC(=N)N)C(=O)N[C@@H](CC(C)C)C(=O)N[C@@H](CCCNC(=N)N)C(=O)N[C@@H](Cc1ccc(O)cc1)C(N)=O)[C@@H](C)CC [peptide 2, [K^27(Lau),K^31(Tam)]-sNPY(27–36)] (H-K(Lauroyl)INPK(X1)[Bip]RLRY-NH2; N-terminus assumed)
- half-life at 10 μM ([1]; human, 10 μM peptide): 23.3 h
- half-life at 10 μM ([2]; plasma): 3.2 h
- remaining at 72 h, 10 μM ([2]; plasma): 3%
- stability in Calu-3 supernatant compared to HEK-293 supernatant [3]: only slightly lower

Molecule: CCCCCCCC(=O)NC[C@H](NC(=O)[C@H](CO)NC(=O)CN)C(=O)N[C@@H](Cc1ccccc1)C(=O)N[C@@H](CC(C)C)C(=O)N[C@@H](CO)C(=O)N1CCC[C@H]1C(=O)N[C@@H](CCC(=O)O)C(=O)N[C@@H](Cc1c[nH]cn1)C(=O)N[C@@H](CCC(N)=O)C(=O)N[C@@H](CCCNC(=N)N)C(=O)N[C@H](C(=O)N[C@@H](CCC(N)=O)C(=O)N[C@@H](CCC(N)=O)C(=O)N[C@@H](CCCNC(=N)N)C(=O)N[C@@H](CCCCNC(=O)c1ccc2c(c1)C1(OC2=O)c2ccc(N(C)C)cc2Oc2cc(N(C)C)ccc21)C(=O)N[C@@H](CCC(=O)O)C(=O)N[C@@H](CO)C(=O)N[C@@H](CCCCN)C(=O)N[C@@H](CCCCN)C(=O)N1CCC[C@H]1C(=O)N1CCC[C@H]1C(=O)N[C@@H](C)C(=O)N[C@@H](CCCCN)C(=O)N[C@@H](CC(C)C)C(=O)N[C@@H](CCC(N)=O)C(=O)N1CCC[C@H]1C(=O)N[C@@H](CCCNC(=N)N)C(=O)O)C(C)C [peptide 3, [Dpr^3,K^16(Tam)]-Ghr]
- half-life at 10 μM ([1]; human, 10 μM peptide): 57.1 h
- half-life at 10 μM ([2]; human blood plasma diluted with DPBS (1:1), blood plasma half-life, human blood plasma/DPBS (1:1), 10 μM peptide, 37 °C, one-phase decay): 50.5 h
- half-life at 10 μM ([2]; human blood plasma diluted with DPBS (1:1), donor plasma 3, half-life in plasma 3, donor comparison, plasma 3, plasma/DPBS (1:1), 10 μM, 37 °C): 57.4 h

Molecule: CCCCCCCC(=O)NC[C@H](NC(=O)[C@H](CO)NC(=O)CN)C(=O)N[C@@H](Cc1ccccc1)C(=O)N[C@@H](CC(C)C)C(=O)N[C@@H](CO)C(=O)N1CCC[C@H]1C(=O)N[C@@H](CCC(=O)O)C(=O)N[C@@H](Cc1c[nH]cn1)C(=O)N[C@@H](CCC(N)=O)C(=O)N[C@@H](CCCNC(=N)N)C(=O)N[C@H](C(=O)N[C@@H](CCC(N)=O)C(=O)N[C@@H](CCC(N)=O)C(=O)N[C@@H](CCCNC(=N)N)C(=O)N[C@@H](CCCCNC(=O)c1ccc2c(c1)C1(OC2=O)c2ccc(N(C)C)cc2Oc2cc(N(C)C)ccc21)C(=O)N[C@@H](CCC(=O)O)C(=O)N[C@@H](CO)C(=O)N[C@@H](CCCCN)C(=O)N[C@@H](CCCCNC(=O)CCCCCCCCCCCCCCCCC(=O)O)C(=O)N1CCC[C@H]1C(=O)N1CCC[C@H]1C(=O)N[C@@H](C)C(=O)N[C@@H](CCCCN)C(=O)N[C@@H](CC(C)C)C(=O)N[C@@H](CCC(N)=O)C(=O)N1CCC[C@H]1C(=O)N[C@@H](CCCNC(=N)N)C(=O)O)C(C)C [peptide 4, [Dpr^3,K^16(Tam),K^20(Odd)]-Ghr]
- cleavage products detected by MALDI-ToF MS, HEK-293 supernatant ([1]; HPLC eluents): no cleavage was observed
- metabolised at 72 h, 10 μM ([1]; human, HEK-293 cell culture supernatant, 10 μM peptide, DMEM with 15% FBS, 72 h, read-out: degradation over 72 h in HEK-293 supernatant): < 10%
- cleavage products detected by MALDI-ToF MS, blood plasma ([2]; HPLC eluents): no cleavage was observed
- remaining at 72 h, 10 μM ([2]; human blood plasma): ~90%
- cleavage products detected by MALDI-ToF MS, Calu-3 supernatant ([3]; HPLC eluents): strong C- and N-terminal truncation

Molecule: GS-Dpr(Oct)-FLSPEHQRVQQRK(Tam)ESKK(Odd)PPAKLQPR
- not cleaved [4]: around 90% intact peptide after 72 h
- not cleaved [5]: degradation of less than 10% over 72 h
